The record followed here is US20210353595A1, “USE OF MELATONIN IN PREPARATION OF MEDICAMENT FOR INHIBITING AND/OR KILLING BACTERIUM” (priority 2020, published 2021).

One may read the MIC as the lowest concentration found to suppress growth. Lower therefore signals greater potency.

The structures appear in SMILES notation. In brackets after ≈: the same amount, converted by molar mass. Entries after “also recorded” stand apart in the source; their conditions may differ.

Experiment [1] has as its system citrate synthase of Pasteurella multocida. Nature of the experiment: Citrate synthase activity of bacteria after treatment. The format is cell-based. Particulars: MT 1, 2, 3 mg/mL, 12 h; FIG. 15. As to the method: Based on the discovery of metabolomics, the enzyme activity of citrate synthase after melatonin treatment was studied. 1 mL of Pasteurella multocida (1×10^9 CFU) at the logarithmic growth stage was added into 100 mL of fresh and sterile Martin broth medium containing different concentrations (1 mg/mL, 2 mg/mL, and 3 mg/mL) of MT. Melatonin-free DMSO was used as a solvent control group, and the bacterial cells were cultured in a constant-temperature shaker at 37° C. and 220 rpm for 12 h. Thereafter, 1 mL of the bacterial solution was centrifuged at 3000 r/min for 10 minutes, and the supernatant and precipitated cells were collected, respectively. The citrate synthase activity was determined using a determination kit according to the protocol of the instructions. Each experiment was repeated for three times, and each group was set in triplicate. Further, 1 mL of Pasteurella multocida (1×10^9 CFU) at the logarithmic growth stage was added into 100 mL of fresh and sterile Martin broth medium containing different concentrations of melatonin and citric acid (MT-1 mg/mL, MT-2 mg/mL, MT-3 mg/mL, CA-1 mg/mL, CA-2 mg/mL, CA-3 mg/mL, MT-1 mg/mL-CA-1 mg/mL, MT-2 mg/mL-CA-2 mg/mL, MT-3 mg/mL-CA-3 mg/mL). […] The citrate synthase activity was determined using a determination kit according to the protocol of the instructions. […]

The next experiment deals with Enterobacter sakazakii. Nature of the experiment: MIC/MBC bacteriostatic and bactericidal test. The format is cell-based. The following applies: Cronobacter sakazakii. The method, then:
(§1) 1 mL of a fresh suspension of bacteria (1×10^9 CFU) at the logarithmic growth stage was added into 100 mL containing different concentrations (50 mg/mL, 25 mg/mL, 12.5 mg/mL, 6.25 mg/mL, 3.125 mg/mL, 1.5625 mg/mL, 0.78125 mg/mL, 0.390625 mg/mL) of melatonin. A melatonin (MT)-free solution diluted with DMSO was used as a control group. The samples were shaken at 37° C. and a rotation speed of 120 r/min with protection from light for 12 hours, and then subjected to detection of the minimal inhibitory concentration (MIC) of MT on bacteria. Then, 0.1 mL of the aforementioned transparent bacterial solution was pipetted onto a sterilized agar plate of a specific culture medium and coated evenly, incubated in an incubator at 37° C. for 24 hours, and then subjected to detection of the minimum bactericidal concentration (MBC) of MT on pathogens, wherein the minimum concentration of MT at which no bacterium grew was the MBC of MT on pathogens. Each experiment was carried out for 3 times, and each group was set in triplicate.

Experiment [2] concerns Bovine meningitic Escherichia coli. Nature of the experiment: MIC/MBC bacteriostatic and bactericidal test. The format is cell-based. The method, then:
as §1

For another experiment, the system named is Klebsiella pneumoniae. Nature of the experiment: MIC/MBC bacteriostatic and bactericidal test. The format is cell-based. As to the method:
as §1

The next experiment concerns Mannheimia haemolytica. Nature of the experiment: MIC/MBC bacteriostatic and bactericidal test. It is filed as cell-based. The method, then:
as §1

Experiment [3] concerns Staphylococcus aureus (ATCC25923). In words: MIC/MBC bacteriostatic and bactericidal test. The format is cell-based. As to the method:
as §1

For experiment [4], the system named is Pasteurella multocida. Nature of the experiment: Non-targeted metabonomic analysis. The format is cell-based. The following applies: 1 mg/mL of MT, 12 hours. As to the method:
1 mL of fresh Pasteurella multocida (P. multocida) at the logarithmic growth stage was added into 100 mL of fresh Martin liquid medium containing 1 mg/mL of MT, and MT-free DMSO was used as a solvent control group. All cultures were incubated with shaking at 37° C. and 220 rpm for 12 hours. The bacterial samples were centrifuged at a speed of 3000 rpm/min at 4° C. for 10 minutes, the supernatant was removed, and the bacterial cells were collected and washed with PBS for 3 times. The bacterial cells were rapidly frozen in liquid nitrogen, transferred to dry ice, and sent to Shanghai Baiqu Biomedical Technology Co., Ltd. for metabolomic analysis (Q Exactive Orbitrap, Thermo Fisher Scientific, USA). Through the non-targeted metabonomic study of Pasteurella multocida cells before and after melatonin treatment, it was clarified which metabolic pathway of the bacteria is affected by melatonin in exerting the antibacterial activity of melatonin.

The test system of experiment [5] is Pasteurella multocida. In words: Prevention of Pasteurella multocida infection by melatonin in mice. It is filed as in vivo, C57BL/6 mice. As to the method: C57 mice purchased from the Third Military Medical University were randomly divided into four groups (10 mice in each group): a group of Pasteurella multocida+solvent control, a group of Pasteurella multocida+MT (30 mg/kg), a group of Pasteurella multocida+MT (60 mg/kg), and a group of Pasteurella multocida+MT (120 mg/kg). Before Pasteurella multocida infection, MT was injected intraperitoneally to the experimental group (injection once in the morning) for consecutive 7 days (P) or 6 days (P-1), while the control mice received the equal amount of DMSO. Thereafter, mice were infected by intraperitoneal injection of suspension of Pasteurella multocida ([…]). The survival rate of mice within 7 days was monitored and recorded. Blood samples were collected from mice, and the serum was stored at −20° C. for later ELISA test. Lung samples were collected and homogenized aseptically, and then the bacterial load was quantified by serial dilution, plate inoculation and CFU counting.
In order to measure the colonization of mouse lung bacteria before and after melatonin treatment, the lung tissues of mice were collected 24 hours and 32 hours after infection. The tissues were homogenized under aseptic conditions, and the bacterial content was determined by continuous dilution of 10 times in saline. These different dilutions were coated on the Martin broth agar in triplicate and incubated in a constant-temperature incubator at 37° C. for 24 hours to count the bacterial CFU.

The mark [6] stands for this setting: preventive dose 60 mg/kg or above, intraperitoneal, consecutive 7 days before infection.

For the compound `COc1ccc2[nH]cc(CCNC(C)=O)c2c1` [melatonin, N-acetyl-5-methoxytryptamine], the “activity of citrate synthase in the bacteria and the culture medium” value in experiment [1] is “significantly reduced; also recorded: significantly inhibiting”. Further, the MIC against Enterobacter sakazakii (37° C., 12 hours) amounted to 6.25 mg/mL (≈ 26.9 mM); in experiment [2] (37° C., 12 hours) it was 12.5 mg/mL (≈ 53.8 mM); in the experiment on Klebsiella pneumoniae (37° C., 12 hours) it was 3.12 mg/mL (≈ 13.5 mM); against Mannheimia haemolytica (37° C., 12 hours) it was 12.5 mg/mL (≈ 53.8 mM); in experiment [3] (37° C., 12 hours) it was 50 mg/mL (≈ 215 mM). The MBC in the experiment with Enterobacter sakazakii (agar plate 37° C., 24 hours) amounted to 25 mg/mL (≈ 108 mM); in experiment [2] (agar plate 37° C., 24 hours), 12.5 mg/mL (≈ 53.8 mM); with Klebsiella pneumoniae (agar plate 37° C., 24 hours) it was 6.25 mg/mL (≈ 26.9 mM); with Mannheimia haemolytica (agar plate 37° C., 24 hours) it was 25 mg/mL (≈ 108 mM); in experiment [3] (agar plate 37° C., 24 hours) it was 50 mg/mL (≈ 215 mM). The “acetyl coenzyme A level in bacterial cells” value with Pasteurella multocida [4] is on record as “significantly up-regulated”. The “citric acid level in bacterial cells” value in the experiment with Pasteurella multocida [4] is given as “significantly down-regulated”. The “pyruvic acid level in bacterial cells” value in the experiment with Pasteurella multocida [4] is recorded as “significantly up-regulated”. For the same compound, the “preventive effect on the bacterial infection” value in the experiment with Pasteurella multocida [5] (melatonin removed 24 hours before infection (P-1, 6 days), FIGS. 33 and 34) is “significant preventive effect”. For the same compound, in the experiment with Pasteurella multocida [5] (setting [6]), the “bacterial count in the lung” value was “significantly reduced”. In the experiment on Pasteurella multocida [5] (setting [6]), the “survival rate of mice” value was “significantly improved”.
